{"source": "patent US7632841B2", "about": "“2-N{5-[[4-[2-(methyl-2-pyridinylamino) ethoxy] phenyl]methyl]-2,4-thiazolidinedione} butanedioic acid, methods of preparation and compositions with rosiglitazone maleate” (Teva Pharmaceutical Industries, Ltd., priority 2006, dated 2009)", "assay": "Compatibility study: rosiglitazone maleate mixed with excipients/metformin and water, formation of Compound 1", "type": "physicochemical", "details": "rosiglitazone maleate mixed with the named excipient in proportions of 500 mg/4 mg tablets, 0.5 ml water added, 65° C. for 4 days", "method": "Rosiglitazone maleate was mixed with various excipients and with metformin in the same proportions as present in the 500 mg/4 mg (base strength) metformin/rosiglitazone maleate tablets. 0.5 ml of water was added to each mixture, and the samples were kept at 65° C. for 4 days. The amount of Compound 1 was determined in each of the samples using the method in Example 4. The peaks were measured and the area percent (area of Compound 1 peak/area of all rosiglitazone related peaks) of the Compound 1 peak is listed below.\nPlacebo mix A refers to a mixture of excipients as indicated in Example 5a, with the exception of rosiglitazone maleate.\nPlacebo mix B refers to a mixture of excipients as indicated in Example 5b, with the exception of rosiglitazone maleate.", "data": [{"smiles": "CN(CCOc1ccc(CC2SC(=O)NC2=O)cc1)c1ccccn1.O=C(O)/C=C\\C(=O)O", "note": "(racemic) [Rosiglitazone Maleate (alone), (±)-5-[[4-[2-(methyl-2-pyridinylamino)ethoxy]phenyl]methyl]-2,4-thiazolidinedione, (Z)-2-butenedioate (1:1)]", "values": [{"measurement": "Area Percent of Compound 1 peak (area of Compound 1 peak/area of all rosiglitazone related peaks)", "result": 0.9, "unit": "Area Percent"}]}]}
